Data on two compounds can be found in PMC3251254, “Mini-PEG spacering of VAP-1-targeting ^68Ga-DOTAVAP-P1 peptide improves PET imaging of inflammation” (EJNMMI Research, 2011).

For series [1] the following is noted: in vivo, iv; for AUC / CL / blood-plasma ratio / metabolic half-life / plasma free fraction (fp): rat. On the procedure:
Blood samples (0.2 ml of each) were drawn at 5, 10, 15, 30, 45, 60 and 120 min after injection of ^68Ga-DOTA-peptides into heparinised tubes (Microvette 100; Sarstedt, Nümbrecht, Germany). Radioactivity of whole blood was measured with the gamma counter (Wizard, EG&G Wallac). Plasma was separated by centrifugation (2,200 × g for 5 min at 4°C), and plasma radioactivity was measured. The ratio of radioactivity in blood versus plasma was calculated. To determine plasma protein binding, proteins were precipitated with 10% sulphosalicylic acid, and the radioactivity in protein precipitate and supernatant was measured. The plasma supernatant was further analysed by radio-HPLC in order to evaluate the in vivo stability of the ^68Ga-labelled peptides.
In vivo stability data were used in order to generate metabolite-corrected plasma TACs for ^68Ga-DOTAVAP-P1 and ^68Ga-DOTAVAP-PEG-P1, which were further used for the calculation of pharmacokinetic parameters. The area under curve (AUC) of the plasma TAC from 0 to infinity was calculated using a non-compartmental analysis employing the trapezoidal rule. The clearance (CL) of the ^68Ga-labelled peptides after a single intravenous bolus dose was calculated by dividing the injected dose by the AUC. The plot of the natural logarithm of parent tracer concentration against time after bolus injection became linear in the end phase, as the tracer was eliminated according to the laws of first-order reaction kinetics. The elimination rate constant (kel) was calculated as the negative slope of the linear part of the plot. The plasma elimination half-life (t1/2) was calculated as t1/2 = ln(2)/kel. The metabolic half-lives of the ^68Ga-DOTA-peptides were calculated according to the results of radio-HPLC, i.e. the time point when 50% of the total radioactivity is still bound to the intact peptide.

The format of series [2] is in vitro ADME. As to conditions: plasma. As for the experimental part: The in vitro stability of the ^68Ga-labelled peptides was evaluated in human and rat plasma. Several samples were taken during the 4-h incubation period at 37°C. Proteins from plasma samples were precipitated with 10% sulphosalicylic acid (1:1 v/v), centrifuged at 3,900 × g for 3 min at 4°C, and filtered through 0.45-μm Minispike filter (Waters Corporation). The filtrate was analysed by radio-HPLC.

Structures are written as SMILES. Read-outs that look alike come from different tables or passages of the source. Residues, ends and D or L forms follow the SMILES beside them. *: point of attachment. DOTA = O=C(O)CN1CCN(CC(=O)O)CCN(CC(=O)*)CCN(CC(=O)O)CC1; AEEA = NCCOCCOCC(=O)O

The amount remaining is what is left of the initial amount, in per cent. A lower amount remaining goes with a greater loss. Regarding `NCCCC[C@H](NC(=O)CNC(=O)CNC(=O)CNC(=O)CNC(=O)CN1CCN(CC(=O)O)CCN(CC(=O)O)CCN(CC(=O)O)CC1)C(=O)NCC(=O)NCC(=O)NCC(=O)NCC(=O)O` [^68Ga-DOTAVAP-P1, metal not drawn] ({DOTA}-GGGGKGGGG-OH), in series [1], the “proportion of unchanged peptide in rat plasma at 60 min after injection” value is 19 ± 4%, the “proportion of unchanged peptide in rat plasma at 120 min after injection” value is listed as 4 ± 1%, the AUC is 950 ± 170 min*kBq/ml and the CL was determined as 0.017 ± 0.001 mL/min. Moreover, in series [1], the blood-plasma ratio is 1.3 ± 0.1, the metabolic half-life turned out to be 0.4 h and the “plasma free fraction (fp)” value came out at 0.84 ± 0.04. The compound further returned an amount remaining at 4 h in series [2] (human) of 88 ± 3%. This compound displayed an amount remaining at 4 h in series [2] (rat) of 82 ± 11%.

On to `NCCCC[C@H](NC(=O)CNC(=O)CNC(=O)CNC(=O)CNC(=O)COCCOCCNC(=O)CN1CCN(CC(=O)O)CCN(CC(=O)O)CCN(CC(=O)O)CC1)C(=O)NCC(=O)NCC(=O)NCC(=O)NCC(=O)O` [^68Ga-DOTAVAP-PEG-P1, metal not drawn] ({DOTA-AEEA}-GGGGKGGGG-OH), for which, in series [1], the “proportion of unchanged peptide in rat plasma at 60 min after injection” value is on record as 76 ± 18%, the “proportion of unchanged peptide in rat plasma at 120 min after injection” value came to 49 ± 6%, the AUC is on record as 2,400 ± 68 min*kBq/ml and the CL amounted to 0.008 ± 0.002 mL/min. In addition, in series [1], the blood-plasma ratio came out at 1.3 ± 0.1, the metabolic half-life came out at 2.08 h and the “plasma free fraction (fp)” value was found to be 0.86 ± 0.02. The compound also had an amount remaining at 4 h in series [2] (human) of 89 ± 8%. In series [2] (rat), this compound had a fraction remaining at 4 h of 90 ± 6%.
